Measured values: ChEMBL document CHEMBL1138908, “Design and structure-activity relationship of 3-benzimidazol-2-yl-1H-indazoles as inhibitors of receptor tyrosine kinases” (Bioorg Med Chem Lett, 2006)

Key:
[1] = molecular target: Vascular endothelial growth factor receptor 2 (Mus musculus, UniProt P35918); assay: Inhibition of VEGFR2
[2] = molecular target: Vascular endothelial growth factor receptor 1 (Homo sapiens, UniProt P17948); assay: Inhibition of VEGFR1
[3] = molecular target: Platelet-derived growth factor receptor beta (Mus musculus, UniProt P05622); assay: Inhibition of PDGFRbeta
[4] = molecular target: Fibroblast growth factor receptor 1 (Homo sapiens, UniProt P11362); assay: Inhibition of FGFR1
[5] = system: HMEC; assay: Inhibition of VEGF-mediated proliferation of HMVEC; assay type: functional, cell-based; details: Homo sapiens
[6] = Oral bioavailability in mouse; assay type: ADME, organism-based; details: in vivo
[7] = Clearance in mouse; assay type: ADME, organism-based; details: in vivo
[8] = Volume of distribution in mouse; assay type: ADME, organism-based; details: in vivo, read-out: Vdss
[9] = species: Mus musculus; assay: Area under curve in mouse; assay type: ADME, organism-based; details: in vivo
[10] = system: KM12; assay: Antitumor activity against human KM12L4a cell line xenografted in nude mice at 100 mg/kg, after 14 days; assay type: functional; details: Mus musculus, KM12, 336 h, read-out: TGI
[11] = Half life in mouse; assay type: ADME, organism-based; details: in vivo
[12] = system: KM12; assay: Antitumor activity against human KM12L4a cell line xenografted in nude mice at 30 mg/kg, after 14 days; assay type: functional; details: Mus musculus, KM12, 336 h, read-out: TGI

Sequence of Vascular endothelial growth factor receptor 1 (P17948 whole entry): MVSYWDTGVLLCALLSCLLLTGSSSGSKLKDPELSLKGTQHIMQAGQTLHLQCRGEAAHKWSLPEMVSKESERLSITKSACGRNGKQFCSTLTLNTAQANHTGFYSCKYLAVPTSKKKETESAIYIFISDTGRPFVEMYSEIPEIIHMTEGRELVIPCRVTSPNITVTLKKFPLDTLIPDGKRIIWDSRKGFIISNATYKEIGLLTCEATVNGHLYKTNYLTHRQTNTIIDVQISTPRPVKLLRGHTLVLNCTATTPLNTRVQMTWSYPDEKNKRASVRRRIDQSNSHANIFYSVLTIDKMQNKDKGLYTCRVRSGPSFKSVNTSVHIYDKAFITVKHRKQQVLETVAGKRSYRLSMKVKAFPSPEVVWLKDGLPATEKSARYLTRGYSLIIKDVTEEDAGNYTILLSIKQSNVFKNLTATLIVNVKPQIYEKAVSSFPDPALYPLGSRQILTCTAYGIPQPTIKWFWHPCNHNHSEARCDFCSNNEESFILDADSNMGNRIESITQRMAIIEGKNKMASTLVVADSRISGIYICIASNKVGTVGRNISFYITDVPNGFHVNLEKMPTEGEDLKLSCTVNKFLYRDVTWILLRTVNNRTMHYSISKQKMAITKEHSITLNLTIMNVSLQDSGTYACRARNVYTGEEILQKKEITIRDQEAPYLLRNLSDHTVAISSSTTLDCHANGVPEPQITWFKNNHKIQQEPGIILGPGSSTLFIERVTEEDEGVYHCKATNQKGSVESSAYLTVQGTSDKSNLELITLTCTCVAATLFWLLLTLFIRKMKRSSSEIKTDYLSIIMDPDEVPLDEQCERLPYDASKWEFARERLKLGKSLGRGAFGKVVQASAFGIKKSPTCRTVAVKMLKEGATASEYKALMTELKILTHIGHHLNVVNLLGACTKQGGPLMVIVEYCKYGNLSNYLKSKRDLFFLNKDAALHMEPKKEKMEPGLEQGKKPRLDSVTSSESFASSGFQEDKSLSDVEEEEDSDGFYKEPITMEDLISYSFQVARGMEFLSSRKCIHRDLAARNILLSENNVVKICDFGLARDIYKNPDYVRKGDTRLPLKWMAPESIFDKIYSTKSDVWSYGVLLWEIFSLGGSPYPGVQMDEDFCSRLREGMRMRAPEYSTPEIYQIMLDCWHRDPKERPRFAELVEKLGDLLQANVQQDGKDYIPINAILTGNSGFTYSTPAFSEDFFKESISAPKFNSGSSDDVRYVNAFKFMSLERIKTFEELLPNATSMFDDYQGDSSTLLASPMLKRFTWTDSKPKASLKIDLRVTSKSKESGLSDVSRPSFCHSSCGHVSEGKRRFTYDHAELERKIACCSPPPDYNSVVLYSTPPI
Sequence of Platelet-derived growth factor receptor beta (P05622 whole entry): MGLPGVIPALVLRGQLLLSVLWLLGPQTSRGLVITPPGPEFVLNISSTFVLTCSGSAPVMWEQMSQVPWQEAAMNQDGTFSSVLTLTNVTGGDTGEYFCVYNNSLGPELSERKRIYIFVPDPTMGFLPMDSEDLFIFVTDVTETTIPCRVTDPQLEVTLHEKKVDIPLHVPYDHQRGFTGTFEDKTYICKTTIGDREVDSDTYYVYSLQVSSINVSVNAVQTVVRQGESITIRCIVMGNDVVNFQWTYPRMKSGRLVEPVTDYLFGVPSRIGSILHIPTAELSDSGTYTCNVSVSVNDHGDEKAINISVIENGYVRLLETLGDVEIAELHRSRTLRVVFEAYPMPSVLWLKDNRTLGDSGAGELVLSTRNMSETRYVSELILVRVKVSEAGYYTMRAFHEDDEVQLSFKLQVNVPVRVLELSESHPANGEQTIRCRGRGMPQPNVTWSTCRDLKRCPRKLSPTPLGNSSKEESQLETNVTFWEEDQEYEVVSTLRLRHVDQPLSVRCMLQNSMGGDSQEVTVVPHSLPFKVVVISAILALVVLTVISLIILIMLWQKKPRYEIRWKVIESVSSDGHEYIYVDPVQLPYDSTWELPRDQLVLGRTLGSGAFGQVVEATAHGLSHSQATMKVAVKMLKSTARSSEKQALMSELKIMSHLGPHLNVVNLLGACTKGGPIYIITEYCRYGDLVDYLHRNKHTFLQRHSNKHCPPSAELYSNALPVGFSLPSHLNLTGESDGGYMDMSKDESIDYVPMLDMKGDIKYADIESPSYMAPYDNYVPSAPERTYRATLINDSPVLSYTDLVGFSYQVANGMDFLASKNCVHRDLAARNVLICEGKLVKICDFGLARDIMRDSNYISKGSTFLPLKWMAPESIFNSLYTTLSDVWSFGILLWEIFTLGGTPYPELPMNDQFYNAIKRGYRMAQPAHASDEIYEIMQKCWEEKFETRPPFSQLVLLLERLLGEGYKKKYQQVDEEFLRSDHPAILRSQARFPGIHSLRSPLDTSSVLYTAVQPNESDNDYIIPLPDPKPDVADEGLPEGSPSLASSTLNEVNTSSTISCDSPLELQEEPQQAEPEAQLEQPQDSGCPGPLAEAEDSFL
Sequence of Fibroblast growth factor receptor 1 (P11362 whole entry): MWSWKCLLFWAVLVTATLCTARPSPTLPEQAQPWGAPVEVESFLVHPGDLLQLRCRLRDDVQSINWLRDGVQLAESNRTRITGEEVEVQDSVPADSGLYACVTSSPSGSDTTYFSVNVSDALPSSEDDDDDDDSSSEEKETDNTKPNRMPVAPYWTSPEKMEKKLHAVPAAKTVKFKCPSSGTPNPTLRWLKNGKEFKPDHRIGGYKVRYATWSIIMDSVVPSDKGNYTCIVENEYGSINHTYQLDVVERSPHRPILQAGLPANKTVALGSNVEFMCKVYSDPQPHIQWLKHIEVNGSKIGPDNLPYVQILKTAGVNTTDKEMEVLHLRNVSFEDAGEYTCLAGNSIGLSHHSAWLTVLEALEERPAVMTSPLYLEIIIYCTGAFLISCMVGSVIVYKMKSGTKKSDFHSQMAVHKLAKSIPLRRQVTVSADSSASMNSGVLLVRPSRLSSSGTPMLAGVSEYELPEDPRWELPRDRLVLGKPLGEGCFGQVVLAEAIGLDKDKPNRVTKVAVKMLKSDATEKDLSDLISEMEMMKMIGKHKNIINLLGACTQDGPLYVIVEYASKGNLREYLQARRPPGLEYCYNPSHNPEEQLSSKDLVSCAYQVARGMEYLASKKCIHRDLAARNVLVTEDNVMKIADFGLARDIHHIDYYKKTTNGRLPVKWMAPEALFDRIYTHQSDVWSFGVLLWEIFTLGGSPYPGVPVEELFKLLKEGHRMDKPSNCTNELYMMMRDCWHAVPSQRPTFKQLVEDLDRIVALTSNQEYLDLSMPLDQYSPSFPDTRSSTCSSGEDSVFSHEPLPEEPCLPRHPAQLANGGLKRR
Sequence of Vascular endothelial growth factor receptor 2 (P35918 whole entry): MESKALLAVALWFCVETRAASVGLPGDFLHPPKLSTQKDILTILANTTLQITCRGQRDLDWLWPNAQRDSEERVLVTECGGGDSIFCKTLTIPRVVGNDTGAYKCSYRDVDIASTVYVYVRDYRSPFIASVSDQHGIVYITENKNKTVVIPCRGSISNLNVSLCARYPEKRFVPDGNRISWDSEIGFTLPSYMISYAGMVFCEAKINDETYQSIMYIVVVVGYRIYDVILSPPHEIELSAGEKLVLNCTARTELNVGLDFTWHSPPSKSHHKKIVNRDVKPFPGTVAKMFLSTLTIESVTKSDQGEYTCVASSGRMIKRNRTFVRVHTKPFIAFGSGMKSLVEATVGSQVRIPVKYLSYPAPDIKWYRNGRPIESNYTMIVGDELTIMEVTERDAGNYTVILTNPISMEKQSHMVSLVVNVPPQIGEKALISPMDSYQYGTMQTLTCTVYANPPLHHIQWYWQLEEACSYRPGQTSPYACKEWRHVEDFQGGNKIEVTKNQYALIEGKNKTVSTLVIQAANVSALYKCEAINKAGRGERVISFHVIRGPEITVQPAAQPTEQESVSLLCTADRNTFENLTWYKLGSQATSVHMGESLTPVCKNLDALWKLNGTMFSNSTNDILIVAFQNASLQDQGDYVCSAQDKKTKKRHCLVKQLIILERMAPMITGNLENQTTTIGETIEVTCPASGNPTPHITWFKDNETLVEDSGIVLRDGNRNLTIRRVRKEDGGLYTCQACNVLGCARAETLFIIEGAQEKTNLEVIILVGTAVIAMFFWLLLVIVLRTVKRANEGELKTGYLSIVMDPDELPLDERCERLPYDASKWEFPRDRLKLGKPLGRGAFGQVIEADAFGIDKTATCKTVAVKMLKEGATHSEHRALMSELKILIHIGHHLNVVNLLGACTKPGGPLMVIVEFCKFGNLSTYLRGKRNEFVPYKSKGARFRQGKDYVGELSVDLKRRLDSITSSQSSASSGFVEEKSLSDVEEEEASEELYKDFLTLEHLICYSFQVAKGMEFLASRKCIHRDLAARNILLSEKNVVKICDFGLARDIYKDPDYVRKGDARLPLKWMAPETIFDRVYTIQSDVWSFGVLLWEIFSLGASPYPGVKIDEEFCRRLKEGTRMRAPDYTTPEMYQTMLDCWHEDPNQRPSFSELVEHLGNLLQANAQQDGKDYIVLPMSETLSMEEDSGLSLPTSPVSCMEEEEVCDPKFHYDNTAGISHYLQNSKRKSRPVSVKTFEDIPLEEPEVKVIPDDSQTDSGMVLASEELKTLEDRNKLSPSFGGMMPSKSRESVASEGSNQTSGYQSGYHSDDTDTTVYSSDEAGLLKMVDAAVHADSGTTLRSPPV

Row | bioavailability [6] [%] | clearance [7] [mL/min/kg] | Vd [8] [L/kg] | AUC [9] [ng·h/mL] | half-life [11] [h] | Compound | IC50 [1] [nM] | IC50 [2] [nM] | IC50 [3] [nM] | IC50 [4] [nM] | EC50 [5] [nM] | inhibition in vivo at 100 mg/kg [10] [%] | inhibition in vivo at 30 mg/kg [12] [%]
1 | – | – | – | – | – | CC(C)(C)NC(=O)Nc1cccc2c(-c3nc4cc(N5CCC(N6CCCCC6)CC5)ccc4[nH]3)[nH]nc12 | > 3000 | > 3000 | > 3000 | > 3000 | – | – | –
2 | – | – | – | – | – | c1ccc2[nH]c(-c3n[nH]c4ccccc34)nc2c1 | 3300 | 720 | 3400 | 1400 | 5900 | – | –
3 | – | – | – | – | – | c1ccc2c(-c3nc4cc(-n5ccnc5)ccc4[nH]3)n[nH]c2c1 | 83 | 96 | 1400 | 210 | 7000 | – | –
4 | – | – | – | – | – | c1ccc(COc2cccc3c(-c4nc5cc(N6CCC(N7CCCCC7)CC6)ccc5[nH]4)[nH]nc23)cc1 | > 3000 | > 3000 | > 3000 | > 3000 | 1800 | – | –
5 | – | – | – | – | – | c1ccc2c(-c3nc4ccc(N5CCC(N6CCCCC6)CC5)cc4[nH]3)n[nH]c2c1 | 78 | 28 | 690 | 48 | 97 | – | –
6 | – | – | – | – | – | c1ccc(COc2cccc3[nH]nc(-c4nc5cc(N6CCC(N7CCCCC7)CC6)ccc5[nH]4)c23)cc1 | 660 | 63 | 1800 | 94 | 460 | – | –
7 | – | – | – | – | – | CC(C)(C)NC(=O)Nc1cccc2[nH]nc(-c3nc4cc(N5CCC(N6CCCCC6)CC5)ccc4[nH]3)c12 | 70 | 4 | 440 | 3 | 240 | – | –
8 | – | – | – | – | – | c1ccc2c(-c3nc4cc(OCCCN5CCCC5)ccc4[nH]3)[nH]nc2c1 | 170 | 48 | 440 | 98 | 270 | – | –
9 | – | – | – | – | – | c1ccc(Oc2ccc3n[nH]c(-c4nc5cc(N6CCC(N7CCCCC7)CC6)ccc5[nH]4)c3c2)cc1 | 44 | 28 | 8 | 15 | 80 | – | –
10 | – | – | – | – | – | Fc1cccc2c(-c3nc4ccc(N5CCC(N6CCCCC6)CC5)cc4[nH]3)n[nH]c12 | 330 | 150 | 2300 | 200 | 1400 | – | –
11 | – | – | – | – | – | CN1CCN(Cc2ccc3[nH]c(-c4[nH]nc5ccccc45)nc3c2)CC1 | 260 | 170 | 1900 | 270 | 300 | – | –
12 | – | – | – | – | – | c1cc2[nH]nc(-c3nc4ccc(N5CCC(N6CCCCC6)CC5)cc4[nH]3)c2cc1NCC1CCCCC1 | 44 | 21 | 1700 | 16 | 220 | – | –
13 | – | – | – | – | – | c1ccc(COc2ccc3c(-c4nc5ccc(N6CCC(N7CCCCC7)CC6)cc5[nH]4)n[nH]c3c2)cc1 | 21 | 11 | 180 | 23 | 220 | – | –
14 | – | – | – | – | – | FC(F)(F)c1ccc2c(-c3nc4ccc(N5CCC(N6CCCCC6)CC5)cc4[nH]3)n[nH]c2c1 | 52 | – | 62 | – | 4 | – | –
15 | – | – | – | – | – | COC(=O)c1ccc2[nH]nc(-c3nc4ccc(N5CCC(N6CCCCC6)CC5)cc4[nH]3)c2c1 | 31 | 15 | 63 | 73 | 130 | – | –
16 | – | – | – | – | – | CN1CCC(N(C)c2ccc3nc(-c4n[nH]c5ccccc45)[nH]c3c2)CC1 | 150 | 8 | 500 | 18 | 220 | – | –
17 | – | – | – | – | – | CC(C)(C)NC(=O)Nc1ccc2[nH]nc(-c3nc4ccc(N5CCC(N6CCCCC6)CC5)cc4[nH]3)c2c1 | 5 | – | 81 | – | 350 | – | –
18 | – | – | – | – | – | Nc1c(-c2nc3ccccc3[nH]2)c(=O)[nH]c2ccccc12 | – | – | – | – | 78 | – | –
19 | – | – | – | – | – | c1ccc2c(-c3nc4c(N5CCOCC5)cccc4[nH]3)n[nH]c2c1 | > 3000 | > 3000 | > 3000 | 830 | > 10000 | – | –
20 | – | – | – | – | – | c1ccc2c(-c3nc4ccc(N5CCOCC5)cc4[nH]3)n[nH]c2c1 | 160 | 50 | 260 | 100 | 160 | – | –
21 | – | – | – | – | – | c1ccc(COc2ccc3[nH]nc(-c4nc5ccc(N6CCC(N7CCCCC7)CC6)cc5[nH]4)c3c2)cc1 | 30 | 3 | 83 | 8 | 190 | – | –
22 | – | – | – | – | – | CN1CCN(c2ccc3[nH]c(-c4[nH]nc5ccccc45)nc3c2)CC1 | 130 | 44 | 170 | 82 | 97 | – | –
23 | 62 | 71 | 24.8 | 2830 | 4.22 | Fc1ccc2c(-c3nc4cc(N5CCC(N6CCCCC6)CC5)ccc4[nH]3)[nH]nc2c1 | 28 | 10 | 310 | 28 | 33 | 88 | 50
